# Reference: patent US4325946A, “Anthracycline glycosides, their preparation, use and compositions thereof” (Farmitalia Carlo Erba S.p.A., priority 1979, dated 1982)
# Where a name gives a salt, the structure may show the parent alone.
# Legend:
# HeLa cells = test: Effect on HeLa cells cloning efficiency in vitro; assay type: cell-based; conditions: HeLa cells exposed 24 hours, then plated, colonies evaluated 5 days later; for IC50: Homo sapiens, read-out: ID50 (the source's name)
# Method: (§1) The new compounds according to the invention were tested in HeLa cells in vitro (time of exposure to the drugs: 24 hours) and on P-388 ascitic leukemia in mice in comparison with daunorubicin (daunomycin) and doxorubicin (adriamycin).
# Effect on HeLa Cells Cloning Efficiency In Vitro^(a)
# ^(a) HeLa cells were exposed to the test compounds for 24 hours, then
# plated. The number of colonies was evaluated 5 days later.
# P-388 ascitic leukemia = test: Activity on ascitic P-388 leukemia in mice; assay type: in vivo; conditions: for Toxic Deaths: macroscopic autoptic findings
# Method: as §1
# Activity on Ascitic P-388 Leukemia in Mice
# ^(a) Mice were treated i.p. on day 1 after tumor cell inoculation.
# ^(b) Median survival time of treated mice/median survival time of
# ^(c) Evaluated on the basis of macroscopic autoptic findings.
# ^(d) Longtime survival.
molecule,measurement,setting,value
"COc1cccc2c1C(=O)c1c(O)c3c(c(O)c1C2=O)C[C@@](O)(C(C)=O)C[C@@H]3O[C@H]1C[C@H](N)[C@H](O)[C@H](C)O1 [Daunorubicin . HCl, Daunorubicin, reference compound]",IC50,HeLa cells,9 ng/mL
same,T/C (median survival time of treated mice/control mice × 100),P-388 ascitic leukemia; 2.9 mg/Kg i.p. on day 1,175%
same,Toxic Deaths,P-388 ascitic leukemia; 2.9 mg/Kg i.p. on day 1,0/40
same,T/C (median survival time of treated mice/control mice × 100),P-388 ascitic leukemia; 4.4 mg/Kg i.p. on day 1,180%
same,Toxic Deaths,P-388 ascitic leukemia; 4.4 mg/Kg i.p. on day 1,3/39
"COc1cccc2c1C(=O)c1c(O)c3c(c(O)c1C2=O)CC(O)(C(=O)CO)CC3OC1CC(N)C(C)(O)C(C)O1.Cl (stereo not shown) [I-B, 4'-C-methyl-doxorubicin]",ID50,HeLa cells,18 ng/mL
same,T/C (median survival time of treated mice/control mice × 100),P-388 ascitic leukemia; 6 mg/Kg i.p. on day 1,186%
same,Toxic Deaths,P-388 ascitic leukemia; 6 mg/Kg i.p. on day 1,0/10
same,T/C (median survival time of treated mice/control mice × 100),P-388 ascitic leukemia; 7.7 mg/Kg i.p. on day 1,172%
same,Toxic Deaths,P-388 ascitic leukemia; 7.7 mg/Kg i.p. on day 1,0/10
same,LTS (longtime survival),P-388 ascitic leukemia; 10 mg/Kg i.p. on day 1,3/20
same,T/C (median survival time of treated mice/control mice × 100),P-388 ascitic leukemia; 10 mg/Kg i.p. on day 1,233%
same,Toxic Deaths,P-388 ascitic leukemia; 10 mg/Kg i.p. on day 1,2/20
"COc1cccc2c1C(=O)c1c(O)c3c(c(O)c1C2=O)C[C@@](O)(C(=O)CO)C[C@@H]3O[C@H]1C[C@H](N)[C@H](O)[C@H](C)O1 [Doxorubicin . HCl, Doxorubicin, reference compound]",IC50,HeLa cells,8.4 ng/mL
same,LTS (longtime survival),P-388 ascitic leukemia; 6.6 mg/Kg i.p. on day 1,2/30
same,T/C (median survival time of treated mice/control mice × 100),P-388 ascitic leukemia; 6.6 mg/Kg i.p. on day 1,193%
same,Toxic Deaths,P-388 ascitic leukemia; 6.6 mg/Kg i.p. on day 1,0/30
same,LTS (longtime survival),P-388 ascitic leukemia; 10 mg/Kg i.p. on day 1,5/28
same,T/C (median survival time of treated mice/control mice × 100),P-388 ascitic leukemia; 10 mg/Kg i.p. on day 1,227%
same,Toxic Deaths,P-388 ascitic leukemia; 10 mg/Kg i.p. on day 1,1/28
4'-epi-4'-C-methyl-daunorubicin [I-C],ID50,HeLa cells,2.8 ng/mL
same,T/C (median survival time of treated mice/control mice × 100),P-388 ascitic leukemia; 0.29 mg/Kg i.p. on day 1,140%
same,Toxic Deaths,P-388 ascitic leukemia; 0.29 mg/Kg i.p. on day 1,0/10
same,T/C (median survival time of treated mice/control mice × 100),P-388 ascitic leukemia; 0.44 mg/Kg i.p. on day 1,163%
same,Toxic Deaths,P-388 ascitic leukemia; 0.44 mg/Kg i.p. on day 1,0/10
same,T/C (median survival time of treated mice/control mice × 100),P-388 ascitic leukemia; 0.66 mg/Kg i.p. on day 1,158%
same,Toxic Deaths,P-388 ascitic leukemia; 0.66 mg/Kg i.p. on day 1,1/20
4'-epi-4'-C-methyl-doxorubicin [I-D],ID50,HeLa cells,0.62 ng/mL
same,T/C (median survival time of treated mice/control mice × 100),P-388 ascitic leukemia; 1 mg/Kg i.p. on day 1,150%
same,Toxic Deaths,P-388 ascitic leukemia; 1 mg/Kg i.p. on day 1,0/10
same,T/C (median survival time of treated mice/control mice × 100),P-388 ascitic leukemia; 2 mg/Kg i.p. on day 1,156%
same,Toxic Deaths,P-388 ascitic leukemia; 2 mg/Kg i.p. on day 1,0/10
4'-C-methyl-daunorubicin [I-A],ID50,HeLa cells,35 ng/mL
same,T/C (median survival time of treated mice/control mice × 100),P-388 ascitic leukemia; 10 mg/Kg i.p. on day 1,150%
same,Toxic Deaths,P-388 ascitic leukemia; 10 mg/Kg i.p. on day 1,0/10
same,T/C (median survival time of treated mice/control mice × 100),P-388 ascitic leukemia; 20 mg/Kg i.p. on day 1,155%
same,Toxic Deaths,P-388 ascitic leukemia; 20 mg/Kg i.p. on day 1,0/10
